# Assay results from patent publication US9051310B2, “Nicotinamide derivative or salt thereof” (FUJIFILM Corporation, priority 2011, dated 2015).
# Target: T1, glutathione S-transferase (GST)-linked full-length human Syk protein (Homo sapiens, UniProt P43405)
# T1 construct: glutathione S-transferase (GST)-linked full-length human Syk protein; purchased Carna Biosciences; host or cells: Baculovirus expression system
# Experiment: Syk enzyme assay
# Assay type: biochemical
# Settings: 0.83 nM Syk, time-resolved fluorescence; read-out: IC50 of Syk-inhibitory activity
# Outline: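 Phosphotyrosine on a biotin-peptide substrate (0.5 μM) was read by time-resolved fluorescence at 615 and 665 nm with Eu-anti-pTyr antibody and APC-streptavidin after 1 h EDTA stop.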
row,IC50 [nM],SMILES
1,50 to 100,"Cc1nn(-c2cncc(Nc3nc(N[C@H](C4CC4)[C@H](C)N)c(F)cc3C(N)=O)c2)nc1C [Example 2-534, 6-(((1R,2S)-2-amino-1-cyclopropylpropyl)amino)-2-((5-(4,5-dimethyl-2H-1,2,3-triazol-2-yl)pyridin-3-yl)amino)-5-fluoronicotinamide]"
2,< 10,"CC[C@H](N)[C@@H](CC)Nc1nc(Nc2cc(F)c3c(c2)c(OC)nn3C)c(C(N)=O)cc1F [Example 2-160, 6-(((3R,4S)-4-aminohexan-3-yl)amino)-5-fluoro-2-((7-fluoro-3-methoxy-1-methyl-1H-indazol-5-yl)amino)nicotinamide]"
3,10 to 50,"COc1nn(C)c2ccc(Nc3nc(N[C@H](C(C)C)[C@H](C)N)c(F)cc3C(N)=O)cc12 [Example 2-81, 6-(((2S,3R)-2-amino-4-methylpentan-3-yl)amino)-5-fluoro-2-((3-methoxy-1-methyl-1H-indazol-5-yl)amino)nicotinamide]"
4,10 to 50,"Cc1ncc(Nc2nc(N[C@H](c3ccc(C(F)(F)F)cc3)[C@H](C)N)c(F)cc2C(N)=O)cc1-n1nccn1 [Example 2-354, 6-(((1R,2S)-2-amino-1-(4-(trifluoromethyl)phenyl)propyl)amino)-5-fluoro-2-((6-methyl-5-(2H-1,2,3-triazol-2-yl)pyridin-3-yl)amino)nicotinamide]"
5,< 10,"COc1nn(C)c2c(F)cc(Nc3nc(N[C@H](CC(C)C)[C@H](C)N)c(F)cc3C(N)=O)cc12 [Example 2-156, 6-(((2S,3R)-2-amino-5-methylhexan-3-yl)amino)-5-fluoro-2-((7-fluoro-3-methoxy-1-methyl-1H-indazol-5-yl)amino)nicotinamide]"
6,< 10,"COc1cc(Nc2nc(N[C@H](C3CCC3)[C@H](C)N)c(F)cc2C(N)=O)ccc1C [Example 2-30, 6-(((1R,2S)-2-amino-1-cyclobutylpropyl)amino)-5-Fluoro-2-((3-methoxy-4-methylphenyl)amino)nicotinamide]"
7,10 to 50,"COCCNc1nn(C)c2ccc(Nc3nc(N[C@H](C4CC4)[C@H](C)N)c(F)cc3C(N)=O)cc12 [Example 2-464, 6-(((1R,2S)-2-amino-1-cyclopropylpropyl)amino)-5-fluoro-2-((3-((2-methoxyethyl)amino)-1-methyl-1H-indazol-5-yl)amino)nicotinamide]"
8,50 to 100,"COCCOc1cc(Nc2nc(N[C@H](C)[C@@H](N)C3CC3)c(F)cc2C(N)=O)ccn1 [Example 2-228, 6-(((1S,2R)-1-amino-1-cyclopropylpropan-2-yl)amino)-5-fluoro-2-((2-(2-methoxyethoxy)pyridin-4-yl)amino)nicotinamide]"
9,10 to 50,"CCn1ncc2cc(Nc3nc(N[C@@H](CN)Cc4ccccc4)c(F)cc3C(N)=O)ccc21 [Example 2-363, (R)-6-((1-amino-3-phenylpropan-2-yl)amino)-2-((1-ethyl-1H-indazol-5-yl)amino)-5-fluoronicotinamide]"
10,< 10,"Cc1cnn(-c2cncc(Nc3nc(N[C@H](CC(C)C)[C@H](C)N)c(F)cc3C(N)=O)c2)c1 [Example 2-525, 6-(((2S,3R)-2-amino-5-methylhexan-3-yl)amino)-5-fluoro-2-((5-(4-methyl-1H-pyrazol-1-yl)pyridin-3-yl)amino)nicotinamide]"
11,< 10,"CC[C@@H](Nc1nc(Nc2ccc3c(c2)c(OC(F)F)nn3CCOC)c(C(N)=O)cc1F)[C@H](C)N [Example 2-175, 6-(((2S,3R)-2-aminopentan-3-yl)amino)-2-((3-(difluoromethoxy)-1-(2-methoxyethyl)-1H-indazol-5-yl)amino)-5-fluoronicotinamide]"
12,10 to 50,"COCCOc1ncc(Nc2nc(N[C@H](C3CCC3)[C@H](C)N)c(F)cc2C(N)=O)cc1-n1nccn1 [Example 2-165, 6-(((1R,2S)-2-amino-1-cyclobutylpropyl)amino)-5-fluoro-2-((6-(2-methoxyethoxy)-5-(2H-1,2,3-triazol-2-yl)pyridin-3-yl)amino)nicotinamide]"
13,10 to 50,"CC[C@H](N)[C@@H](C)Nc1nc(Nc2ccc3c(c2)c(NC)nn3C)c(C(N)=O)cc1F [Example 2-499, 6-(((2R,3S)-3-aminopentan-2-yl)amino)-5-fluoro-2-((1-methyl-3-(methylamino)-1H-indazol-5-yl)amino)nicotinamide]"
14,< 10,"CC(C)C[C@H](CN)Nc1nc(Nc2cncc3c2cnn3CC(F)F)c(C(N)=O)cc1F [Example 2-395, (R)-6-((1-amino-4-methylpentan-2-yl)amino)-2-((1-(2,2-difluoroethyl)-1H-pyrazolo[3,4-c]pyridin-4-yl)amino)-5-fluoronicotinamide]"
15,< 10,"COCCn1ncc2c(Nc3nc(N[C@H](C4CCC4)[C@H](C)N)c(F)cc3C(N)=O)cncc21 [Example 2-391, 6-(((1R,2S)-2-amino-1-cyclobutylpropyl)amino)-5-fluoro-2-((1-(2-methoxyethyl)-1H-pyrazolo[3,4-c]pyridin-4-yl)amino)nicotinamide]"
16,10 to 50,"CN(C)c1nn(C)c2ncc(Nc3nc(N[C@@H]4CCCC[C@@H]4N)c(F)cc3C(N)=O)cc12 [Example 2-286, 6-(((1R,2S)-2-aminocyclohexyl)amino)-2-((3-(dimethylamino)-1-methyl-1H-pyrazolo[3,4-b]pyridin-5-yl)amino)-5-fluoronicotinamide]"

row,IC50 [nM],SMILES
1,10 to 50,"COc1ncc(Nc2nc(N[C@H](C3CC3)[C@H](C)N)c(F)cc2C(N)=O)cc1F [Example 2-62, 6-(((1R,2S)-2-amino-1-cyclopropylpropyl)amino)-5-fluoro-2-((5-fluoro-6-methoxypyridin-3-yl)amino)nicotinamide.]"
2,< 10,"COc1nn(C)c2c(F)cc(Nc3nc(N[C@H](CC4CC4)[C@H](C)N)c(F)cc3C(N)=O)cc12 [Example 2-157, 6-(((2R,3S)-3-amino-1-cyclopropylbutan-2-yl)amino)-5-fluoro-2-((7-fluoro-3-methoxy-1-methyl-1H-indazol-5-yl)amino)nicotinamide]"
3,< 10,"CC[C@@H](Nc1nc(Nc2ccc3c(c2)c(N(C)CCOC)nn3C)c(C(N)=O)cc1F)[C@H](C)N [Example 2-458, 6-(((2S,3R)-2-aminopentan-3-yl)amino)-5-fluoro-2-((3-((2-methoxyethyl)(methyl)amino)-1-methyl-1H-indazol-5-yl)amino)nicotinamide]"
4,10 to 50,"C[C@H](N)[C@H](Nc1nc(Nc2ccc(F)c(F)c2)c(C(N)=O)cc1F)C1CCC1 [Example 2-61, 6-(((1R,2S)-2-amino-1-cyclobutylpropyl)amino)-2-((3,4-difluorophenyl)amino)-5-fluoronicotinamide]"
5,10 to 50,"CC(C)c1ccc(Nc2nc(N[C@@H]3CCCC[C@@H]3N)c(F)cc2C(N)=O)cc1 [Example 2-448, 6-(((1R,2S)-2-aminocyclohexyl)amino)-5-fluoro-2-((4-isopropylphenyl)amino) nicotinamide]"
6,< 10,"CCn1ncc2c(Nc3nc(N[C@@H]4CCCC[C@@H]4N)c(F)cc3C(N)=O)cc(F)cc21 [Example 2-369, 6-(((1R,2S)-2-aminocyclohexyl)amino)-2-((1-ethyl-6-fluoro-1H-indazol-4-yl)amino)-5-fluoronicotinamide]"
7,50 to 100,"C[C@H](N)[C@H](Nc1nc(Nc2cc(N3CCOCC3)ncc2F)c(C(N)=O)cc1F)C1CC1 [Example 2-234, 6-(((1R,2S)-2-amino-1-cyclopropylpropyl)amino)-5-fluoro-2-((5-fluoro-2-morpholinopyridin-4-yl)amino)nicotinamide]"
8,10 to 50,"CC(C)C[C@H](CN)Nc1nc(Nc2cnc3c(c2)c(N(C)C)nn3C)c(C(N)=O)cc1F [Example 2-287, (R)-6-((1-amino-4-methylpentan-2-yl)amino)-2-((3-(dimethylamino)-1-methyl-1H-pyrazolo[3,4-b]pyridin-5-yl)amino)-5-fluoronicotinamide]"
9,10 to 50,"NC(=O)c1cc(F)c(N[C@@H]2CCCC[C@@H]2N)nc1Nc1cnc(-n2ccnn2)c(F)c1 [Example 2-68, 6-(((1R,2S)-2-aminocyclohexyl)amino)-5-fluoro-2-((5-fluoro-6-(1H-1,2,3-triazol-1-yl)pyridin-3-yl)amino)nicotinamide]"
10,10 to 50,"Cc1ncc(Nc2nc(N[C@H](c3ccccn3)[C@H](C)N)c(F)cc2C(N)=O)cc1-n1nccn1 [Example 2-403, 6-(((1S,2S)-2-amino-1-(pyridin-2-yl)propyl)amino)-5-fluoro-2-((6-methyl-5-(2H-1,2,3-triazol-2-yl)pyridin-3-yl)amino)nicotinamide]"
11,< 10,"CCn1ncc2c(Nc3nc(N[C@H](c4ccc(Cl)s4)[C@H](C)N)c(F)cc3C(N)=O)cccc21 [Example 2-512, 6-(((1S,2S)-2-amino-1-(5-chlorothiophen-2-yl)propyl)amino)-2-((1-ethyl-1H-indazol-4-yl)amino)-5-fluoronicotinamide]"
12,10 to 50,"C[C@H](N)[C@H](Nc1nc(Nc2cnc3c(c2)c(N(C)C)nn3C)c(C(N)=O)cc1F)C1CC1 [Example 2-290, 6-(((1R,2S)-2-amino-1-cyclopropylpropyl)amino)-2-((3-(dimethylamino)-1-methyl-1H-pyrazolo[3,4-b]pyridin-5-yl)amino)-5-fluoronicotinamide]"
13,< 10,"COCCn1ncc2c(Nc3nc(N[C@@H](CN)CC(C)C)c(F)cc3C(N)=O)cccc21 [Example 2-303, (R)-6-((1-amino-4-methylpentan-2-yl)amino)-5-fluoro-2-((1-(2-methoxyethyl)-1H-indazol-4-yl)amino)nicotinamide]"
14,10 to 50,"CC[C@@H](Nc1nc(Nc2cncc3c2cnn3CCOC)c(C(N)=O)cc1F)[C@H](C)N [Example 2-387, 6-(((2S,3R)-2-aminopentan-3-yl)amino)-5-fluoro-2-((1-(2-methoxyethyl)-1H-pyrazolo[3,4-c]pyridin-4-yl)amino)nicotinamide]"
15,10 to 50,"COCCNc1nn(CCOC)c2ccc(Nc3nc(N[C@H](C4CC4)[C@H](C)N)c(F)cc3C(N)=O)cc12 [Example 2-537, 6-(((1R,2S)-2-amino-1-cyclopropylpropyl)amino)-5-fluoro-2-((1-(2-methoxyethyl)-3-((2-methoxyethyl)amino)-1H-indazol-5-yl)amino)nicotinamide]"
